Assays:
Assay type in all cases: in vivo, human
serum testosterone = assay: Phase I repeated dose study 101-50202: serum total testosterone; details: for increase of the mean serum total testosterone compared to baseline: 28 days, healthy men
Excerpt: (§1) Fispemifene has been studied in two phase I studies in humans—in a single dose and a repeated dose study. Effect of fispemifene on hormone levels was one main focus of the repeated dose study. The phase I repeated dose study (number 101-50202) was a randomized, double-blind, placebo-controlled 28-day dose-escalation study performed in 31 healthy, elderly men, aged 50-68 years. The main objective of the study was to investigate the tolerability, safety and pharmacokinetics of fispemifene after repeated oral doses, but the study focused also on the effects of fispemifene on serum free and total testosterone, estradiol, and other relevant hormones. The fispemifene doses 10, 30, 100 and 300 mg per day and placebo were administered once every morning as capsules containing 10 mg or 100 mg of fispemifene, or placebo.
(§2) The variables for safety and tolerability were adverse events, vital signs, 12-lead ECG, clinical laboratory evaluations, physical examination, ultrasound examinations (mammary glands) and inhibin B. For pharmacokinetics, the concentrations of fispemifene and its metabolite(s) were to be evaluated. For pharmacodynamics, serum concentrations of FSH, LH, estradiol, testosterone, SHBG, prolactin, aldosterone, cortisol and TSH before and during treatment were measured and compared with the concentrations in the placebo-group.

LH = assay: Phase I repeated dose study 101-50202: serum LH
Excerpt: as §1, §2

SHBG = assay: Phase I repeated dose study 101-50202: serum SHBG
Excerpt: as §1, §2

[1] = during the 28 days of treatment

In the case of `OCCOCCOc1ccc(/C(=C(/CCCl)c2ccccc2)c2ccccc2)cc1` [Fispemifene, (Z)-2-{2-[4-(4-Chloro-1,2-diphenylbut-1-enyl)phenoxy]ethoxy}ethanol], the “Serum total testosterone, Mean” value (serum testosterone; 10 mg/day, Baseline) was 19.33 nmol/L, the “Serum total testosterone, Mean” value (serum testosterone; 10 mg/day, Day 8) was 19.83 nmol/L and the “Serum total testosterone, Mean” value (serum testosterone; 10 mg/day, Day 15) was 20.50 nmol/L. For the same molecule, the “Serum total testosterone, Mean” value (serum testosterone; 10 mg/day, Day 22) was 22.00 nmol/L, the “Serum total testosterone, Mean” value (serum testosterone; 10 mg/day, Day 28) was 17.40 nmol/L and the “Serum total testosterone, Mean” value (serum testosterone; 30 mg/day, Baseline) was 15.00 nmol/L. For the same molecule, the “Serum total testosterone, Mean” value (serum testosterone; 30 mg/day, Day 15) was 15.00 nmol/L, the “Serum total testosterone, Mean” value (serum testosterone; 30 mg/day, Day 22) was 15.80 nmol/L and the “Serum total testosterone, Mean” value (serum testosterone; 30 mg/day, Day 28) was 14.80 nmol/L. The “testosterone compared with placebo” value (serum testosterone; 100 mg and 300 mg) was “increased statistically significantly”, the “subjects in whom increase in testosterone serum concentration was seen” value (serum testosterone; 100 mg or 300 mg, 28-day treatment period) was “all the subjects” and the “increase of the mean serum total testosterone compared to baseline” value (shortened to “increase … to baseline”) (serum testosterone; 100 mg/day) was 32%. The “increase … to baseline” value (serum testosterone; 100 mg/day, listed as fispemifene) was “about 32%”, the “Serum total testosterone, Mean” value (serum testosterone; 100 mg/day, Baseline) was 14.27 nmol/L and the “Serum total testosterone, Mean” value (serum testosterone; 100 mg/day, Day 8) was 18.67 nmol/L. The “Serum total testosterone, Mean” value (serum testosterone; 100 mg/day, Day 15) was 19.00 nmol/L, the “Serum total testosterone, Mean” value (serum testosterone; 100 mg/day, Day 22) was 17.83 nmol/L and the “Serum total testosterone, Mean” value (serum testosterone; 100 mg/day, Day 28) was 18.83 nmol/L. For the same molecule, the “men with serum testosterone level above the upper limit of normal range (33 nmol/L) during treatment” value (serum testosterone; 300 mg/day (highest dose)) was “Two out of six”, the “increase … to baseline” value (serum testosterone; 300 mg/day) was 75% and the “increase … to baseline” value (serum testosterone; 300 mg/day, listed as fispemifene) was “about 75%”. For the same molecule, the “Serum total testosterone, Mean” value (serum testosterone; 300 mg/day, Baseline) was 15.67 nmol/L, the “Serum total testosterone, Mean” value (serum testosterone; 300 mg/day, Day 8) was 23.17 nmol/L and the “Serum total testosterone, Mean” value (serum testosterone; 300 mg/day, Day 15) was 27.00 nmol/L. For the same molecule, the “Serum total testosterone, Mean” value (serum testosterone; 300 mg/day, Day 22) was 27.83 nmol/L, the “Serum total testosterone, Mean” value (serum testosterone; 300 mg/day, Day 28) was 27.50 nmol/L and the “effect on serum concentration of testosterone” value (serum testosterone; [1]) was “increased”. For the same molecule, the “effect on serum testosterone concentration” value (serum testosterone; healthy older men, within 28 days from the start of treatment) was “clinically and statistically significant and dose dependent increase”, the “Serum LH, Mean” value (LH; 10 mg/day, Baseline) was 3.47 U/L and the “Serum LH, Mean” value (LH; 10 mg/day, Day 8) was 3.12 U/L. For the same molecule, the “Serum LH, Mean” value (LH; 10 mg/day, Day 15) was 2.87 U/L, the “Serum LH, Mean” value (LH; 10 mg/day, Day 22) was 3.56 U/L and the “Serum LH, Mean” value (LH; 10 mg/day, Day 28) was 3.02 U/L. The “Serum LH, Mean” value (LH; 30 mg/day, Baseline) was 3.58 U/L, the “Serum LH, Mean” value (LH; 30 mg/day, Day 8) was 4.26 U/L and the “Serum LH, Mean” value (LH; 30 mg/day, Day 15) was 5.02 U/L. The “Serum LH, Mean” value (LH; 30 mg/day, Day 22) was 4.32 U/L, the “Serum LH, Mean” value (LH; 30 mg/day, Day 28) was 4.42 U/L and the “Serum LH, Mean” value (LH; 100 mg/day, Baseline) was 4.12 U/L. The “Serum LH, Mean” value (LH; 100 mg/day, Day 8) was 5.52 U/L, the “Serum LH, Mean” value (LH; 100 mg/day, Day 15) was 6.82 U/L and the “Serum LH, Mean” value (LH; 100 mg/day, Day 22) was 7.18 U/L. For the same molecule, the “Serum LH, Mean” value (LH; 100 mg/day, Day 28) was 7.60 U/L, the “Serum LH, Mean” value (LH; 300 mg/day, Baseline) was 4.58 U/L and the “Serum LH, Mean” value (LH; 300 mg/day, Day 8) was 6.80 U/L. The “Serum LH, Mean” value (LH; 300 mg/day, Day 15) was 6.75 U/L, the “Serum LH, Mean” value (LH; 300 mg/day, Day 22) was 7.77 U/L and the “Serum LH, Mean” value (LH; 300 mg/day, Day 28) was 6.70 U/L. For the same molecule, the “effect on serum concentration of LH” value (LH; [1]) was “increased”, the “Serum SHBG, Mean” value (SHBG; 10 mg/day, Baseline) was 47.7 nmol/L and the “Serum SHBG, Mean” value (SHBG; 10 mg/day, Day 8) was 46.3 nmol/L. For the same molecule, the “Serum SHBG, Mean” value (SHBG; 10 mg/day, Day 15) was 48.2 nmol/L, the “Serum SHBG, Mean” value (SHBG; 10 mg/day, Day 22) was 50.2 nmol/L and the “Serum SHBG, Mean” value (SHBG; 10 mg/day, Day 28) was 45.2 nmol/L. The “Serum SHBG, Mean” value (SHBG; 30 mg/day, Baseline) was 34.2 nmol/L, the “Serum SHBG, Mean” value (SHBG; 30 mg/day, Day 8) was 34.2 nmol/L and the “Serum SHBG, Mean” value (SHBG; 30 mg/day, Day 15) was 37.4 nmol/L. For the same molecule, the “Serum SHBG, Mean” value (SHBG; 30 mg/day, Day 22) was 37.2 nmol/L, the “Serum SHBG, Mean” value (SHBG; 30 mg/day, Day 28) was 36.6 nmol/L and the “Serum SHBG, Mean” value (SHBG; 100 mg/day, Baseline) was 41.7 nmol/L. The “Serum SHBG, Mean” value (SHBG; 100 mg/day, Day 8) was 47.7 nmol/L, the “Serum SHBG, Mean” value (SHBG; 100 mg/day, Day 15) was 52.0 nmol/L and the “Serum SHBG, Mean” value (SHBG; 100 mg/day, Day 22) was 55.7 nmol/L. The “Serum SHBG, Mean” value (SHBG; 100 mg/day, Day 28) was 50.8 nmol/L, the “Serum SHBG, Mean” value (SHBG; 300 mg/day, Baseline) was 50.7 nmol/L and the “Serum SHBG, Mean” value (SHBG; 300 mg/day, Day 8) was 64.2 nmol/L. The “Serum SHBG, Mean” value (SHBG; 300 mg/day, Day 15) was 66.2 nmol/L, the “Serum SHBG, Mean” value (SHBG; 300 mg/day, Day 22) was 65.2 nmol/L and the “Serum SHBG, Mean” value (SHBG; 300 mg/day, Day 28) was 58.3 nmol/L. The “effect on serum concentration of SHBG” value (SHBG; [1]) was “increased”.
